{
  "source": "ChEMBL document CHEMBL5518158",
  "about": "“Recent advances in triazoles as tyrosinase inhibitors” (Eur J Med Chem, 2023)",
  "type_in_all_cases": "protein assay",
  "key": {"Mushroom tyrosinase [1]": {"molecular_target": "T1, Mushroom tyrosinase (Agaricus bisporus, UniProt O42713+Q00024+C7FF04+C7FF05)", "assay": "Binding affinity to mushroom tyrosinase assessed as binding constant by fluorescence spectrophotometry"}, "Mushroom tyrosinase [2]": {"molecular_target": "T1, Mushroom tyrosinase", "assay": "Inhibition of mushroom tyrosinase using L-DOPA as substrate preincubated for 10 mins"}, "Mushroom tyrosinase [3]": {"molecular_target": "T1, Mushroom tyrosinase", "assay": "Inhibition of mushroom tyrosinase using L-tyr as substrate"}, "Mushroom tyrosinase [4]": {"molecular_target": "T1, Mushroom tyrosinase", "assay": "Inhibition of mushroom tyrosinase using L-tyrosine as substrate incubated for 20 mins by spectrophotometric analysis"}, "Mushroom tyrosinase [5]": {"molecular_target": "T1, Mushroom tyrosinase", "assay": "Inhibition of mushroom tyrosinase using L-DOPA as substrate incubated for 20 mins spectrophotometric analysis"}, "Mushroom tyrosinase [6]": {"molecular_target": "T1, Mushroom tyrosinase", "assay": "Inhibition of mushroom tyrosinase incubated for 10 mins by spectrophotometric analysis"}, "Mushroom tyrosinase [7]": {"molecular_target": "T1, Mushroom tyrosinase", "assay": "Inhibition of mushroom tyrosinase using L-DOPA as substrate pre-treated for 20 mins followed by substrate addition measured for 15 mins by absorbance based analysis"}},
  "data": [
    {"smiles": "O=C(CSc1nnc(-c2ccccc2F)n1-c1ccc(F)cc1)Nc1ccc(F)cc1", "values": [
      {"measurement": "Ki", "setting": "Mushroom tyrosinase [1]", "result": 18, "unit": "nM"},
      {"measurement": "IC50", "setting": "Mushroom tyrosinase [2]", "result": 98, "unit": "nM"}
    ]},
    {"smiles": "COc1ccc(C=O)cc1O", "note": "[ISOVANILLIN]", "values": [
      {"measurement": "IC50", "setting": "Mushroom tyrosinase [3]", "result": "> 500000", "unit": "nM"}
    ]},
    {"smiles": "C/C=C/c1ccc(O)c(OC)c1", "values": [
      {"measurement": "IC50", "setting": "Mushroom tyrosinase [4]", "result": 33330, "unit": "nM"}
    ]},
    {"smiles": "O=c1cc(Cn2cc(COc3cccc4ccccc34)nn2)occ1O", "values": [
      {"measurement": "IC50", "setting": "Mushroom tyrosinase [5]", "result": 60, "unit": "nM"}
    ]},
    {"smiles": "O=c1cc(Cn2cc(COc3ccc4ccccc4c3)nn2)occ1O", "values": [
      {"measurement": "IC50", "setting": "Mushroom tyrosinase [5]", "result": 300, "unit": "nM"}
    ]},
    {"smiles": "O=c1cc(Cn2cc(COc3ccc([N+](=O)[O-])cc3)nn2)occ1O", "values": [
      {"measurement": "IC50", "setting": "Mushroom tyrosinase [6]", "result": 520, "unit": "nM"}
    ]},
    {"smiles": "Oc1ccc2c(c1)OCO2", "values": [
      {"measurement": "IC50", "setting": "Mushroom tyrosinase [7]", "result": 6700, "unit": "nM"}
    ]}
  ]
}
